Reference: the NIST ThermoML archive (doi:10.1016/j.fluid.2011.01.018)

How the values were obtained:
[1] = 101 kPa, Liquid, Vibrating tube method
[2] = xn = mol fraction of the nth substance listed; details: 101 kPa, Liquid, Vibrating tube method

C1CCCCC1 [cyclohexane]
[1]
Details | mass density [kg/m3]
293 K | 778.54
303 K | 769.13
313 K | 759.6
323 K | 749.94

c1ccccc1 [benzene] + C1CCCCC1
[2], x1 = 1
Details | mass density [kg/m3]
293 K | 878.98
303 K | 868.3
313 K | 857.57
323 K | 846.76

CC(C)CC(C)(C)C [2,2,4-trimethylpentane]
[1]
Details | mass density [kg/m3]
293 K | 691.88
303 K | 683.64
313 K | 675.3
323 K | 666.84

c1ccccc1 [benzene] + CC(C)CC(C)(C)C
[2], x1 = 1
Details | mass density [kg/m3]
293 K | 878.98
303 K | 868.3
313 K | 857.57
323 K | 846.76

c1ccccc1 [benzene]
[1]
Details | mass density [kg/m3]
293 K | 878.98
303 K | 868.3
313 K | 857.57
323 K | 846.76

C1CCCCC1 [cyclohexane] + c1ccccc1
mass density [kg/m3], [2]
Details | 293 K | 303 K | 313 K | 323 K
x2 = 0 | 778.54 | 769.13 | 759.6 | 749.94
x2 = 0.1 | 784.99 | 775.47 | 765.87 | 756.14
x2 = 0.1805 | 790.71 | 781.14 | 771.46 | 761.67
x2 = 0.2347 | 794.92 | 785.3 | 775.57 | 765.73
x2 = 0.3029 | 800.47 | 790.79 | 781 | 771.1
x2 = 0.3801 | 807.1 | 797.33 | 787.47 | 777.5
x2 = 0.4453 | 813.09 | 803.25 | 793.32 | 783.27
x2 = 0.5223 | 820.56 | 810.63 | 800.62 | 790.48
x2 = 0.5814 | 826.62 | 816.62 | 806.53 | 796.34
x2 = 0.6563 | 834.72 | 824.62 | 814.44 | 804.14
x2 = 0.7135 | 841.21 | 831.03 | 820.77 | 810.41
x2 = 0.7654 | 847.44 | 837.18 | 826.83 | 816.41
x2 = 0.8191 | 854.16 | 843.82 | 833.39 | 822.89
x2 = 0.8771 | 861.75 | 851.31 | 840.79 | 830.19
x2 = 0.9161 | 867.03 | 856.52 | 845.95 | 835.28

CC(C)CC(C)(C)C [2,2,4-trimethylpentane] + c1ccccc1
mass density [kg/m3], [2]
Details | x2 = 0 | x2 = 0.1248 | x2 = 0.1642 | x2 = 0.3682 | x2 = 0.4538 | x2 = 0.502 | x2 = 0.5388 | x2 = 0.6023 | x2 = 0.6896 | x2 = 0.9443
293 K | 691.88 | 704.06 | 708.26 | 733.74 | 746.53 | 754.34 | 760.7 | 772.44 | 790.37 | 859.13
303 K | 683.64 | 695.66 | 699.8 | 724.94 | 737.57 | 745.27 | 751.54 | 763.15 | 780.86 | 848.73
313 K | 675.3 | 687.16 | 691.24 | 716.05 | 728.51 | 736.12 | 742.33 | 753.77 | 771.25 | 838.26
323 K | 666.84 | 678.53 | 682.55 | 707.04 | 719.33 | 726.85 | 732.96 | 744.28 | 761.54 | 827.7
